Results as given in US6642271B2, “Potentiating compounds” (Ardenia Investments, Ltd., priority 2001, dated 2003).
Several values for one entry are separate records, joined by “and”; a condition that tells them apart may be missing. Equal values may be shown once.

What was measured:
[1] = test system: human breast adenocarcinoma MDA-MB-231 cell line; assay: Cytotoxicity: cell growth inhibition in cultures, viable cells counted by trypan blue exclusion; format: cell-based; settings: for inhibition at 0.04 µM / inhibition at 1 µM / inhibition at 0.1 µM / inhibition at 0.01 µM / inhibition at 0.001 µM / inhibition at 0.0001 µM / inhibition at 10 pM: Homo sapiens; for Cell growth inhibition % Formulation: compound/paclitaxel formulations in saline; for Cell growth inhibition % OF W/SAB / Cell growth inhibition % OF SAB/W: dried compound/paclitaxel mixed-micellar system (OF); for Cell growth inhibition % OF W/SAB: freeze-dried as water solution, reconstituted with 0.05 M sodium acetate buffer; for Cell growth inhibition % OF SAB/W: freeze-dried in 0.05 M sodium acetate buffer, reconstituted with water
Method: The cell line was propagated by cultivation in Nunclon 25 cm^2 flasks (Nunc A/S, Denmark) in Minimum Essential Medium Eagle (MEM), containing antibiotics and supplemented with 10% (v/v) fetal bovine serum (FBS) (Sigma, St. Louis, Mo., USA). The cultures were maintained in growth medium at 37° C. in a humidified atmosphere, 95% air and 5% CO2.
A suspension of tumour cells (60×10^3 cells/mL) was prepared in MEM with 5% FBS and antibiotics. Cell suspension (200 μL) was seeded in wells of Nunclon 96-microwell plates (Nunc A/S, Denmark) at a density of 12×10^3 cell/well. The solutions of the drugs to be tested were added to the cultures on day 0 or day 1 in volumes of 2 μL. In all cases the cells were incubated for 3 days.
At the end of the incubation period, adherent cells were detached by trypsinization and the number of viable cells was counted using trypan blue dye exclusion test and a hemocytometer.
All experiments were performed at least twice and the cells counts were done in triplicate for each drug concentration. Each control and test series consisted of 6-8 cultures. The results are expressed as mean cell number ±SD and the differences between control and test series were evaluated by means of Student's t-test. The cytotoxicity of each tested drug was evaluated by the extent of cell growth inhibition. The Cell growth inhibition was evaluated as follows:
Cell growth inhibition, %=- - - ×100

[2] = Solubility of compounds and formulations; format: physicochemical; settings: for solubility in solvents: sodium salts
Method: The obtained solution can be stored for at least three months at low temperatures, without noticeable change in the properties of compound (I-VI). Moreover, the formulation retains its cytotoxic effects during prolonged storage. Before use, the solution is evaporated in vacuo to yield a waxy solid which is dissolved in saline or other commonly used vehicle for intravenous infusion to a patient. […] An ethanol solution is prepared of one of N-(all-trans-Retinoyl)-L-cysteic acid (I), N-(13-cis-Retinoyl)-L-cysteic acid (11), N-(all-trans-Retinoyl)-L-homocysteic acid (III), N-(13-cis-Retinoyl)-L-homocysteic acid (IV), N-(all-trans-Retinoyl)-L-cysteinesulfinic acid (V), or N-(13-cis-Retinoyl)-L-cysteinesulfinic acid (VI). The obtained solution is evaporated in vacuo to give waxy solid, whereupon Taxol® is added, dissolving the waxy solid. […]

[3] = MDA-MB-231, sodium salt in saline, final 4 × 10^−8 mol/L, day 1, three days
[4] = MDA-MB-231, sodium salt in saline, final 10^−6 mol/L (top of range 10^−11 M to 10^−6 M), day 1, three days
[5] = MDA-MB-231, sodium salt in saline, final 10^−7 mol/L, day 1, three days
[6] = MDA-MB-231, sodium salt in saline, final 10^−8 mol/L, day 1, three days
[7] = MDA-MB-231, sodium salt in saline, final 10^−9 mol/L, day 1, three days
[8] = MDA-MB-231, sodium salt in saline, final 10^−10 mol/L, day 1, three days
[9] = MDA-MB-231, sodium salt of the compound dissolved in saline (1 mg/ml), final concentration 10^−11 mol/L, day 1, three days
[10] = sodium salt in saline, final 4 × 10^−8 mol/L, day 1, three days
[11] = sodium salt in saline, final 10^−6 mol/L (top of range 10^−11 M to 10^−6 M), day 1, three days
[12] = sodium salt in saline, final 10^−6 mol/L, day 1, three days
[13] = sodium salt in saline, final 10^−7 mol/L, day 1, three days
[14] = sodium salt in saline, final 10^−8 mol/L, day 1, three days
[15] = sodium salt in saline, final 10^−9 mol/L, day 1, three days
[16] = sodium salt in saline, final 10^−10 mol/L, day 1, three days
[17] = sodium salt of the compound dissolved in saline (1 mg/ml), final concentration 10^−11 mol/L, day 1, three days
[18] = initial saline solution 0.005 mg/mL, final 40 nM in cultures, added day 1, three days of cultivation
[19] = initial saline solution 0.05 mg/mL, final 40 nM, day 1, three days
[20] = initial saline solution 0.5 mg/mL, final 40 nM, day 1, three days
[21] = initial saline solution 1.0 mg/mL, final 40 nM, day 1, three days
[22] = initial saline solution 5.0 mg/mL, final 40 nM, day 1, three days

## CC1=C(/C=C/C(C)=C/C=C/C(C)=C\C(=O)N[C@@H](CS(=O)O)C(=O)O)C(C)(C)CCC1 [Compound VI, N-(13-cis-Retinoyl)-L-cysteinesulfinic acid]
[1]; [3]
  inhibition at 0.04 µM: 24.9%
[1]; [4]
  inhibition at 1 µM: 27.3%
[1]; [5]
  inhibition at 0.1 µM: 25.8%
[1]; [6]
  inhibition at 0.01 µM: 22.4%
[1]; [7]
  inhibition at 0.001 µM: 14%
[1]; [8]
  inhibition at 0.0001 µM: 13.7%
[1]; [9]
  inhibition at 10 pM: 12.3%
[1]
  Cell growth inhibition % Formulation: close to 55%
  Cell growth inhibition % OF W/SAB: close to 56%
  Cell growth inhibition % OF SAB/W: close to 58%
[1]; [10]
  number of living cells: 39.6 ± 2.70 × 10^3
[1]; [11]
  cell growth inhibition: ~30%
[1]; [12]
  number of living cells: 38.3 ± 2.34 × 10^3
[1]; [13]
  number of living cells: 39.1 ± 2.16 × 10^3
[1]; [14]
  number of living cells: 40.9 ± 2.88 × 10^3
[1]; [15]
  number of living cells: 45.3 ± 2.55 × 10^3
[1]; [16]
  number of living cells: 45.5 ± 2.68 × 10^3
[1]; [17]
  number of living cells: 46.2 ± 3.54 × 10^3
[2]
  solubility in the commercially available Taxol® preparation: excellent solubility
  solubility in solvents: soluble only in mixtures containing water

## CC(=O)O[C@H]1C(=O)[C@@]2(C)[C@H]([C@H](OC(=O)c3ccccc3)[C@]3(O)C[C@H](OC(=O)[C@H](O)[C@@H](NC(=O)c4ccccc4)c4ccccc4)C(C)=C1C3(C)C)[C@]1(OC(C)=O)CO[C@@H]1C[C@@H]2O [Paclitaxel, reference compound]
[1]; 8 × 10^−9 mol/L of paclitaxel (formulation: plus 4 × 10^−8 mol/L of compound, molar ratio 1:5), added day 0, three days
  number of living cells: 15.5 ± 1.63 × 10^3 and 26.3 ± 1.96 × 10^3
[1]; at concentrations close to the IC50 concentration
  cell growth inhibition: ~46%
[1]; drug alone, 10 nM paclitaxel, added day 1, three days of cultivation, positive control of molar-ratio experiments
  cell growth inhibition: 46.1% and 44.3%

## CC1=C(/C=C/C(C)=C/C=C/C(C)=C/C(=O)N[C@@H](CS(=O)O)C(=O)O)C(C)(C)CCC1 [Compound V, N-(all-trans-Retinoyl)-L-cysteinesulfinic acid]
[1]; [3]
  inhibition at 0.04 µM: 27.1%
[1]; [4]
  inhibition at 1 µM: 29.8%
[1]; [5]
  inhibition at 0.1 µM: 27.6%
[1]; [6]
  inhibition at 0.01 µM: 24.3%
[1]; [7]
  inhibition at 0.001 µM: 16.2%
[1]; [8]
  inhibition at 0.0001 µM: 14.7%
[1]; [9]
  inhibition at 10 pM: 13.3%
[1]
  Cell growth inhibition % Formulation: close to 55%
  Cell growth inhibition % OF W/SAB: close to 56%
  Cell growth inhibition % OF SAB/W: close to 58%
[1]; [10]
  number of living cells: 39.6 ± 1.75 × 10^3
[1]; [11]
  cell growth inhibition: ~30%
[1]; [12]
  number of living cells: 38.1 ± 1.86 × 10^3
[1]; [13]
  number of living cells: 39.3 ± 1.22 × 10^3
[1]; [14]
  number of living cells: 41.1 ± 2.34 × 10^3
[1]; [15]
  number of living cells: 45.5 ± 2.80 × 10^3
[1]; [16]
  number of living cells: 46.3 ± 2.49 × 10^3
[1]; [17]
  number of living cells: 47.1 ± 2.41 × 10^3
[2]
  solubility in the commercially available Taxol® preparation: excellent solubility
  solubility in solvents: soluble only in mixtures containing water

## CC1=C(/C=C/C(C)=C/C=C/C(C)=C/C(=O)N[C@@H](CS(=O)(=O)O)C(=O)O)C(C)(C)CCC1 [Compound I, N-(all-trans-Retinoyl)-L-cysteic acid]
[1]; MDA-MB-231, compound alone 4 × 10^−8 mol/L (40 nM), added day 0, three days
  inhibition at 0.04 µM: 39.6%
[1]; MDA-MB-231, dry substance, stock 1 mg/ml in saline, final 4 × 10^−8 mol/L, day 1, three days
  inhibition at 0.04 µM: 38.1%
[1]; MDA-MB-231, dry substance, stock 1 mg/ml in saline, final 10^−6 mol/L, day 1, three days
  inhibition at 1 µM: 42.1%
[1]; MDA-MB-231, dry substance, stock 1 mg/ml in saline, final 10^−7 mol/L, day 1, three days
  inhibition at 0.1 µM: 39.1%
[1]; MDA-MB-231, dry substance, stock 1 mg/ml in saline, final 10^−8 mol/L, day 1, three days
  inhibition at 0.01 µM: 29.9%
[1]; MDA-MB-231, dry substance, stock 1 mg/ml in saline, final 10^−9 mol/L, day 1, three days
  inhibition at 0.001 µM: 19.8%
[1]; MDA-MB-231, dry substance, stock 1 mg/ml in saline, final 10^−10 mol/L, day 1, three days
  inhibition at 0.0001 µM: 18.6%
[1]; MDA-MB-231, dry substance, stock 1 mg/ml in saline, final concentration 10^−11 mol/L, day 1, three days
  inhibition at 10 pM: 27.3%
[1]; [3]
  inhibition at 0.04 µM: 46.8%
[1]; [4]
  inhibition at 1 µM: 49.7%
[1]; [5]
  inhibition at 0.1 µM: 48%
[1]; [6]
  inhibition at 0.01 µM: 46.2%
[1]; [7]
  inhibition at 0.001 µM: 39.7%
[1]; [8]
  inhibition at 0.0001 µM: 36.5%
[1]; [9]
  inhibition at 10 pM: 28.6%
[1]; compound alone 4 × 10^−8 mol/L (40 nM), added day 0, three days, 0.04 µM
  cell growth inhibition: ~40%
[1]; compound alone 4 × 10^−8 mol/L, added day 0, three days
  number of living cells: 16.3 ± 2.50 × 10^3
[1]
  Cell growth inhibition % Formulation: close to 75%
  Cell growth inhibition % OF W/SAB: close to 71%
  Cell growth inhibition % OF SAB/W: close to 72%
[1]; dry substance, stock 1 mg/ml in saline, final 4 × 10^−8 mol/L, day 1, three days
  number of living cells: 30.9 ± 1.62 × 10^3
[1]; dry substance, stock 1 mg/ml in saline, final 10^−6 mol/L, day 1, three days
  number of living cells: 28.9 ± 2.68 × 10^3
[1]; dry substance, stock 1 mg/ml in saline, final 10^−7 mol/L, day 1, three days
  number of living cells: 30.4 ± 1.83 × 10^3
[1]; dry substance, stock 1 mg/ml in saline, final 10^−8 mol/L, day 1, three days
  number of living cells: 35.0 ± 4.38 × 10^3
[1]; dry substance, stock 1 mg/ml in saline, final 10^−9 mol/L, day 1, three days
  number of living cells: 40.0 ± 2.31 × 10^3
[1]; dry substance, stock 1 mg/ml in saline, final 10^−10 mol/L, day 1, three days
  number of living cells: 40.6 ± 1.69 × 10^3
[1]; dry substance, stock 1 mg/ml in saline, final concentration 10^−11 mol/L, day 1, three days
  number of living cells: 36.3 ± 3.82 × 10^3
[1]; [18]
  cell growth inhibition: 33.3%
  number of living cells: 33.3 ± 2.55 × 10^3
[1]; [19]
  cell growth inhibition: 32.1%
  number of living cells: 33.9 ± 2.78 × 10^3
[1]; [20]
  cell growth inhibition: 31.5%
  number of living cells: 34.2 ± 5.09 × 10^3
[1]; [21]
  cell growth inhibition: 38.3%
  number of living cells: 30.8 ± 3.53 × 10^3
[1]; [22]
  cell growth inhibition: 27.7%
  number of living cells: 36.1 ± 4.10 × 10^3
[1]; [10]
  number of living cells: 31.2 ± 1.72 × 10^3
[1]; [11]
  cell growth inhibition: ~50%
[1]; [12]
  number of living cells: 29.5 ± 1.36 × 10^3
[1]; [13]
  number of living cells: 30.5 ± 0.89 × 10^3
[1]; [14]
  number of living cells: 31.6 ± 1.69 × 10^3
[1]; [15]
  number of living cells: 35.4 ± 2.23 × 10^3
[1]; [16]
  number of living cells: 37.3 ± 2.84 × 10^3
[1]; [17]
  number of living cells: 41.9 ± 2.17 × 10^3
[2]
  solubility in the commercially available Taxol® preparation: excellent solubility
  solubility in solvents: soluble only in mixtures containing water
